“Also recorded” adds a separate entry of the source. Structures can show the parent of a compound that is named as a salt.
What was measured:
[1] = system: Ect cells; experiment: Cytokine release in transwells (FlowCytomix bead assay); type: cell-based, human; conditions: for IL-6 secretion induced by TLR3 agonist PIC / IL-8 secretion induced by TLR3 agonist PIC / IL-1RA production: 0.3% acid pH 3.9 or media acidified to pH 3.9 with HCl; for IL-1RA production: absence or presence of PIC
Procedure: (§1) Cytokines were measured using FlowCytomix assays, utilising the basic reagents kit, in conjunction with simplex kits for IL-6, IL-8 and IL-1RA (eBiosciences).
(§2) Test Procedure • 1. Calculate required volumes of reagents and make standards, bead mixtures and biotin-conjugate as described above. • 2. Add 15 μL of either standard, sample or blank (1× assay buffer) to appropriately labelled tubes. • 3. Add 15 μL of prepared bead mixture to each tube. • 4. Add 30 μL of biotin-conjugate mix to each tube, mix tubes well and incubate at room temp for 2 hours. Protect samples from light with foil. • 5. Prepare Streptavidin-PE mix. • 6. Add 0.6 ml 1× assay buffer to each tube and centrifuge at 200 g for 5 min. • 7. Discard s/n, leaving approx. 100 μL. Repeat for a total of 2 washes. • 8. Add 30 μL of Streptavidin-PE mix to all tubes, mix well and incubate at room temp for 1 hour (protected from light). • 9. Add 0.6 ml 1× assay buffer to each tube and centrifuge at 200 g for 5 min. • 10. Discard s/n, leaving approx. 100 μL. Repeat for a total of 2 washes. • 11. Discard s/n from final wash, leaving 100-200 μL of buffer. Analyse samples on the flow cytometer within 24 hours (preferable the same day as the experiment).
(§3) The following concentrations of TLR agonists (Table 3.) have been used to activate FGT cells either alone of added with LA-containing media for 18-24 hours.

[2] = system: ectocervical (Ect) epithelial cells
[3] = system: endocervical (End) epithelial cells
[4] = system: vaginal (VK2) epithelial cells
[5] = system: Ect cells; experiment: Cytokine release in transwells (FlowCytomix bead assay); type: cell-based, human; conditions: 0.3%
[6] = system: VK2 cells; experiment: as above; type: cell-based, human
Procedure: (§4) An analysis was performed to determine if physiologic noncytotoxic concentrations of L-LA alter the release of immune modulators by VK2, End and Ect cells by incubating cells in transwells with L-LA for 24 h at 37° C. in serum free keratinocyte medium and harvesting supernatants (from the apical chamber) for release of immune modulators.
as §1, §2, §3

[7] = system: End cells; experiment: as above; type: cell-based, human
Procedure: as §4, §1, §2, §3

[8] = system: epithelial cells from the lower female reproductive tract; experiment: Cytotoxicity in a standard plate format; type: cell-based, human; conditions: 0.4% L-lactic acid, standard plate format (data not shown)
[9] = system: human female reproductive tissue; conditions: low pH; cited from earlier work
[10] = system: Ect1 E6/E7 ectocervical epithelial cell line; experiment: Cyto/chemokine analysis (Procartaplex, Luminex) after 1 hour treatment; type: cell-based, human; conditions: Ect; for IL-1RA production from cells stimulated with PIC, acid alone / PIC-induced cytokine production, acid alone: 0.03% benzoic acid or 0.15% citric acid; for PIC-induced cytokine production, acid alone: compared with low pH alone (HCl); for LA-induced production of IL-1RA in the presence of the acid: 0.3% LA with 0.03% benzoic acid or 0.15% citric acid; for IL-1RA production, no TLR agonist / IL-6 basal production, no TLR agonist: 1 hour treatment at pH 3.9 (acids at various concentrations, gels diluted to about 0.3% LA), supernatant after 18 hours; for other immune mediators (IL-8, MIP3α, TNF, IL-1B, RANTES), no TLR agonist: 1 hour treatment at pH 3.9, not shown; for LA inhibition of PIC-induced IL-8, IL-6 and TNF in the presence of the acid: PIC and 0.3% LA with 0.03% benzoic acid or 0.15% citric acid
[11] = system: primary ectocervical cells; experiment: Cytokine/chemokine production by primary cells in transwells; type: cell-based, human; conditions: 0.3% LA, PIC or both
Description: Culture of Human Primary Ectocervical Cells in Transwells. To further qualify the data in Example 9, we repeated the experiment with primary ectocervical cells.

[12] = system: Ect1 E6/E7 ectocervical epithelial cell line; experiment: Viability (MTS) 18 hours after 1 hour treatment; conditions: range of concentrations, pH 3.9, 1 hour incubation, read 18 hours later
Procedure: The human ectocervical epithelial cell line Ect1 E6/E7 was utilized for these experiments. Cells were cultured and treated in serum free keratinocyte media (SFKM) containing supplements as per ATCC recommendations. Cells were seeded in 6 mm transwell inserts at a density of 100,000 cells per well, and cultured for 7 days prior to treatment. […] Cytokine-containing supernatants were collected and stored at −80° C. for future analysis and cell viability assessed via MTS assay as per manufacturer's recommendations.
NOTE: The pH of all treatment media containing gels/acids was adjusted to pH 3.9 (to match that of 0.3% LA) prior to treatment. This was performed to ensure that a similar concentration of protonated LA, the active form of LA, was compared. A pH control (media adjusted to pH 3.9 with HCl) was included to determine the effect of low pH alone.
Due to the poor buffering capacity of HCl, treatments containing HCl were refreshed every 20 min during the 1 hour treatment time to ensure the low pH of the treatment media was maintained.

[13] = 0.3% acid (pH 3.9) or low pH alone (pH 3.9 with HCl)
[14] = 0.3% in apical medium, pH 3.9, 24 h
[15] = 0.3%, pH 3.9, absence or presence of PIC
[16] = added to the apical medium in the transwell system, 24 hr
[17] = PIC 1 hour with 0.3% LA or gels diluted to about 0.3% LA, pH 3.9

## C[C@@H](O)C(=O)O [D-LA, D-(−)-lactic acid]
[1]
  IL-6 secretion induced by TLR3 agonist PIC: reduce secretion
  IL-8 secretion induced by TLR3 agonist PIC: reduce secretion
  IL-1RA production: increase IL-1RA production

## Cl [HCl, Hydrochloric acid, reference compound]
[2]; [13]
  effect on cell viability: non-toxic
[1]
  IL-6 secretion induced by TLR3 agonist PIC: neither neutralised L-LA nor HCl acidified media had any significant effect
  IL-8 secretion induced by TLR3 agonist PIC: neither neutralised L-LA nor HCl acidified media had any significant effect
  IL-1RA production: neither neutralised L-LA nor HCl acidified media had any significant effect
[3]; [13]
  effect on cell viability: non-toxic
[4]; [13]
  effect on cell viability: non-toxic

## C[C@H](O)C(=O)O [L-LA, L-(+)-lactic acid]
[5]
  MIP3α production induced by TLR agonist (PIC): reduced the production
  RANTES production induced by TLR agonist (PIC): reduced the production
  TNFα production induced by TLR agonist (PIC): reduced the production
[6]; [14]
  IL-6 secretion induced by TLR3 agonist PIC: reduces secretion
  IL-8 secretion induced by TLR3 agonist PIC: reduces secretion
[6]; 0.3%, pH 3.9
  IL-1RA production with Pam3Ck (TLR2) and lipopolysaccharide (TLR4): same result
[6]; [15]
  IL-1RA production: induces IL-1RA production
[7]; [14]
  IL-6 secretion induced by TLR3 agonist PIC: reduces secretion
  IL-8 secretion induced by TLR3 agonist PIC: reduces secretion
[7]; 0.3%, pH 3.9
  IL-1RA production with Pam3Ck (TLR2) and lipopolysaccharide (TLR4): same result
[7]; [15]
  IL-1RA production: induces IL-1RA production
[2]; [16]
  L-lactic acid concentrations tolerated: up to 0.4%
[1]
  IL-6 secretion induced by TLR3 agonist PIC: reduce secretion; also recorded: reduced the production
  IL-8 secretion induced by TLR3 agonist PIC: reduce secretion; also recorded: reduced the production
  IL-1RA production: induces IL-1RA production; also recorded: increase IL-1RA production; also recorded: significant increase
[1]; 0.3% at pH 7.4
  decreasing levels of proinflammatory cytokines (IL-6, IL-8) induced by PIC, neutralised: neither neutralised L-LA nor HCl acidified media had any significant effect
  increasing the production of IL-1RA, neutralised: neither neutralised L-LA nor HCl acidified media had any significant effect
[1]; 0.3% with or without PIC for 0.5, 1 or 18 hrs, cytokines measured at 18 hrs
  treatment time sufficient for the effects on IL-1RA, IL-6, IL-8, TNFα, RANTES and MIP3α: 30 min
[1]; 0.3%, pH 3.9
  IL-1RA production with Pam3Ck (TLR2) and lipopolysaccharide (TLR4): same result
[8]
  cytotoxicity in standard plate format: highly cytotoxic
[3]; [16]
  L-lactic acid concentrations tolerated: up to 0.4%
[4]; [16]
  L-lactic acid concentrations tolerated: up to 0.4%

## CC(O)C(=O)O (centres unmarked) [LA, lactic acid]
[9]
  inflammatory activity on human female reproductive tissue: pro-inflammatory
[10]; 1 hour treatment, levels below the limit of detection (data not shown)
  IL-1β production, no TLR agonist: small increase
[10]; [17]
  PIC-induced production of IL-6: inhibits
  PIC-induced production of IL-8: inhibits
  PIC-induced production of TNF: inhibits
[11]
  production of IL-1RA, IL-6, IL-8, TNFα, RANTES and MIP3α: trend similar to that of LA treatment of cells lines

## O=C(O)c1ccccc1 [benzoic acid, Benzoic acid]
[12]
  viability of Ect cells, acid excipients: Neither benzoic nor citric acid had any significant effect
[10]
  IL-1RA production from cells stimulated with PIC, acid alone: neither citric nor benzoic acid altered
  PIC-induced cytokine production, acid alone: did not appear to alter
  LA-induced production of IL-1RA in the presence of the acid: largely preserved
  IL-1RA production, no TLR agonist: Neither acid was associated with an altered expression
  IL-6 basal production, no TLR agonist: Neither acid was associated with an altered expression
  other immune mediators (IL-8, MIP3α, TNF, IL-1B, RANTES), no TLR agonist: similarly unaltered
  LA inhibition of PIC-induced IL-8, IL-6 and TNF in the presence of the acid: persists

## O=C(O)CC(O)(CC(=O)O)C(=O)O [citric acid, Citric acid]
[10]
  IL-1RA production from cells stimulated with PIC, acid alone: neither citric nor benzoic acid altered
  PIC-induced cytokine production, acid alone: did not appear to alter
  LA-induced production of IL-1RA in the presence of the acid: largely preserved
  IL-1RA production, no TLR agonist: Neither acid was associated with an altered expression
  IL-6 basal production, no TLR agonist: Neither acid was associated with an altered expression
  other immune mediators (IL-8, MIP3α, TNF, IL-1B, RANTES), no TLR agonist: similarly unaltered
  LA inhibition of PIC-induced IL-8, IL-6 and TNF in the presence of the acid: persists
[10]; 0.15% citric acid, compared to cells stimulated with LA and PIC
  IL-1RA production, acid in combination with PIC and LA: reduced production

Reference: patent publication US9801839B2, “Therapeutic method” (Macfarlane Burnet Institute for Medical Research and Public …, priority 2014, dated 2017)
